According to PMC2361347 (British Journal of Cancer, 2006):
Read-outs that look alike come from different tables or passages of the source.

Tests used:
[1] = test system: newly diagnosed patients in the chronic phase of CML; conditions: cited from earlier work; for annual rate of progression (resulting in death): IRIS study
[2] = test system: Ba/F3 cells transfected to express Bcr-Abl A380S (p185); test: cells; conditions: Mus musculus, BaF3, read-out: Proliferation IC50
T315I mutant = conditions: Table 1
[3] = design: method as in Kantarjian et al, 2006; conditions: patients receiving 400 mg b.i.d.; ref Kantarjian et al, 2006; cited from earlier work
[4] = test system: Ba/F3 cells transfected to express Bcr-Abl E255K (p210); test: cells; conditions: Mus musculus, BaF3, read-out: Proliferation IC50
[5] = test system: Ba/F3 cells transfected to express Bcr-Abl E281K (p185); test: cells; conditions: Mus musculus, BaF3, read-out: Proliferation IC50
[6] = test system: Ba/F3 cells transfected to express Bcr-Abl M237I (p185); test: cells; conditions: Mus musculus, BaF3, read-out: Proliferation IC50
[7] = test system: Ba/F3 cells transfected to express Bcr-Abl F359C (p185); test: cells; conditions: Mus musculus, BaF3, read-out: Proliferation IC50
[8] = test system: Ba/F3 cells transfected to express Bcr-Abl K285N (p185); test: cells; conditions: Mus musculus, BaF3, read-out: Proliferation IC50
[9] = test system: imatinib-resistant CML patients and Ph+ ALL patients; conditions: cited from earlier work; for CML patients who have responded: early-phase clinical findings
KBM5 = test system: KBM5; design: method as in Golemovic et al, 2005; conditions: KBM5 cell line; ref Golemovic et al, 2005; cited from earlier work
[10] = test system: imatinib-resistant BCR-ABL mutants; conditions: number of mutants / mutants tested; Table 1
KBM7 = test system: KBM7; design: method as in Golemovic et al, 2005; conditions: KBM7 cell line; ref Golemovic et al, 2005; cited from earlier work
[11] = test system: Ba/F3 cells transfected to express Bcr-Abl E355G (p185); test: cells; conditions: Mus musculus, BaF3, read-out: Proliferation IC50
[12] = test system: Ba/F3 cells transfected to express Bcr-Abl E255D (p185); test: cells; conditions: Mus musculus, BaF3, read-out: Proliferation IC50
[13] = test system: imatinib-resistant CML mouse models; design: method as in Weisberg et al, 2005; conditions: ref Weisberg et al, 2005; cited from earlier work
[14] = test system: Ba/F3 cells transfected to express Bcr-Abl E255K (p185); test: cells; conditions: Mus musculus, BaF3, read-out: Proliferation IC50
[15] = test system: mice injected with BCR-ABL-transformed haematopoietic cell lines or primary marrow cells; conditions: ref Weisberg et al, 2005; cited from earlier work
[16] = test system: Ba/F3 cells transfected to express Bcr-Abl T315I (p210); test: cells; conditions: Mus musculus, BaF3, read-out: Proliferation IC50
[17] = test system: Ba/F3 cells transfected to express Bcr-Abl L387F (p185); test: cells; conditions: Mus musculus, BaF3, read-out: Proliferation IC50
[18] = test system: Ba/F3 cells transfected to express Bcr-Abl Y253H (p185); test: cells; conditions: Mus musculus, BaF3, read-out: Proliferation IC50
[19] = test system: Ba/F3 cells transfected to express Bcr-Abl G250E (p185); test: cells; conditions: Mus musculus, BaF3, read-out: Proliferation IC50
[20] = test system: Ba/F3 cells transfected to express Bcr-Abl L248V (p185); test: cells; conditions: Mus musculus, BaF3, read-out: Proliferation IC50
[21] = test system: Ba/F3 cells transfected to express Bcr-Abl E275K (p185); test: cells; conditions: Mus musculus, BaF3, read-out: Proliferation IC50
[22] = test system: Ba/F3 cells transfected to express Bcr-Abl G250A (p185); test: cells; conditions: Mus musculus, BaF3, read-out: Proliferation IC50
[23] = test system: Ba/F3 cells transfected to express Bcr-Abl F359V (p185); test: cells; conditions: Mus musculus, BaF3, read-out: Proliferation IC50
[24] = test system: Ba/F3 cells transfected to express Bcr-Abl Wild-type p210+IL-3; test: cells; conditions: Mus musculus, BaF3, read-out: Proliferation IC50
[25] = test system: Ba/F3 cells transfected to express Bcr-Abl F486S (p210); test: cells; conditions: Mus musculus, BaF3, read-out: Proliferation IC50
[26] = test system: Ba/F3 cells transfected to express Bcr-Abl F317V (p185); test: cells; conditions: Mus musculus, BaF3, read-out: Proliferation IC50
[27] = test system: Ba/F3 cells transfected to express Bcr-Abl M388L (p185); test: cells; conditions: Mus musculus, BaF3, read-out: Proliferation IC50
[28] = test system: Ba/F3 cells transfected to express Bcr-Abl E255V (p210); test: cells; conditions: Mus musculus, BaF3, read-out: Proliferation IC50
[29] = test system: Ba/F3 cells transfected to express Bcr-Abl E292K (p210); test: cells; conditions: Mus musculus, BaF3, read-out: Proliferation IC50
[30] = test system: Ba/F3 cells transfected to express Bcr-Abl E355A (p185); test: cells; conditions: Mus musculus, BaF3, read-out: Proliferation IC50
[31] = test system: Ba/F3 cells transfected to express Bcr-Abl F317C (p185); test: cells; conditions: Mus musculus, BaF3, read-out: Proliferation IC50
[32] = test system: Ba/F3 cells transfected to express Bcr-Abl G250V (p185); test: cells; conditions: Mus musculus, BaF3, read-out: Proliferation IC50
[33] = test system: Ba/F3 cells transfected to express Bcr-Abl F317L (p210); test: cells; conditions: Mus musculus, BaF3, read-out: Proliferation IC50
[34] = test system: Ba/F3 cells transfected to express Bcr-Abl F311V (p185); test: cells; conditions: Mus musculus, BaF3, read-out: Proliferation IC50
[35] = test system: Ba/F3 cells transfected to express Bcr-Abl Wild-type p210; test: cells; conditions: Mus musculus, BaF3, read-out: Proliferation IC50
[36] = newly diagnosed chronic-phase patients, ref Simonsson, 2005
[37] = accelerated phase CML patients, ref Kantarjian et al, 2006
[38] = blast-phase CML patients, ref Kantarjian et al, 2006
[39] = chronic phase CML patients, ref Kantarjian et al, 2006

For `Cc1ccc(NC(=O)c2ccc(CN3CCN(C)CC3)cc2)cc1Nc1nccc(-c2cccnc2)n1` [Imatinib], the “annual rate of progression (resulting in death)” value (“annual rate of progression” for short) ([1]; after 1 year of therapy) is given as 3.4%, the “annual rate of progression” value ([1]; after 2 years of therapy) is given as 7.5% and the “annual rate of progression” value ([1]; after 3 years of therapy) is given as 4.8%. For the same compound, the “annual rate of progression” value ([1]; after 4 years of therapy) was 1.5%, the complete cytogenetic responses [1, 36] was 86% and the complete haematologic remissions [1, 36] was 98%.
For `Cc1cn(-c2cc(NC(=O)c3ccc(C)c(Nc4nccc(-c5cccnc5)n4)c3)cc(C(F)(F)F)c2)cn1` [AMN107], the IC50 [2] is given as 164 ± 27 nM, the “activity against the T315I mutant” value (T315I mutant) is given as “no significant activity” and the apparent half-life [3] is given as 15 h. The “mean peak plasma level” value [3] was 3.6 µM, the “mean trough plasma level” value [3] was 1.7 µM and the IC50 [4] was 548 ± 72 nM. For the same compound, the IC50 [5] was 40 ± 9.8 nM, the IC50 [6] was 43 ± 8.7 nM and the IC50 [7] was 258 ± 61 nM. The IC50 [8] was 57 ± 12 nM, the maximum tolerated dose ([9]; Phase I, 50–1200 mg day−1 for up to 385 days, ref Kantarjian et al, 2006) was 600 mg b.i.d and the cytogenetic responses [9, 37] was 48%. The haematological responses [9, 37] was 72%, the cytogenetic responses [9, 38] was 27% and the haematological responses [9, 38] was 39%. For the same compound, the cytogenetic responses [9, 39] was 53%, the haematological responses [9, 39] was 92% and the “CML patients who have responded” value ([9]; early, chronic-phase patients) was “over 90%”. For the same compound, the “imatinib-resistant Ph+ ALL patients who responded” value ([9]; of 13 Ph+ ALL patients, ref Kantarjian et al, 2006) was “Two”, the “CML patients who have responded” value ([9]; patients with advanced disease) was “Greater than 70%” and the “times more potent than imatinib” value (KBM5) was 43 times. For the same compound, the “imatinib-resistant BCR-ABL mutants against which activity is maintained” value [10] was 32/33, the “times more potent than imatinib” value (KBM7) was 60 times and the IC50 [11] was 47 ± 8 nM. For the same compound, the IC50 [12] was 27 ± 3.1 nM, the survival [13] was “prolong survival” and the IC50 [14] was 308 ± 42 nM. For the same compound, the survival of mice [15] was “prolong the survival”, the IC50 [16] was over 10000 nM and the IC50 [17] was 46 ± 7.2 nM. It also gave an IC50 [18] of 700 ± 116 nM, an IC50 [19] of 145 ± 32 nM and an IC50 [20] of 102 ± 13 nM. The IC50 [21] was 44 ± 17.1 nM, the IC50 [22] was 65 ± 5.6 nM and the IC50 [23] was 161 ± 61 nM. It also gave an IC50 [24] of over 10000 nM, an IC50 [25] of 75 ± 7 nM and an IC50 [26] of 28 ± 4 nM. It also gave an IC50 [27] of 18 ± 2.6 nM, an IC50 [28] of 791 ± 67 nM and an IC50 [29] of 81 ± 8 nM. For the same compound, the IC50 [30] was 35 ± 6.7 nM, the IC50 [31] was 20 ± 3.1 nM and the IC50 [32] was 19 ± 1.4 nM. The IC50 [33] was 91 ± 6.5 nM, the IC50 [34] was 155 ± 31 nM and the IC50 [35] was 25 ± 1 nM.
